PubChem BioAssay (NCI)
“And” between values parts separate entries of the source, which are not always exact repeats. Equal entries are not always repeated.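 In this assay, cells in 96-well plates receive the compound at five concentrations for 48 hours. Endpoints are linearly interpolated between the surrounding concentrations. GI50 is the concentration that inhibits growth by half. The concentration for full growth arrest is given as TGI.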

Tests used:
Assay in all cases: growth of human tumour cells (NCI), 48 h
ACHN renal = tested on: ACHN renal
HOP-62 NSCLC = tested on: HOP-62 NSCLC
KM12 colon = tested on: KM12 colon
MCF7 breast = tested on: MCF7 breast
MDA-MB-231 breast = tested on: MDA-MB-231 breast
NCI-H460 lung = tested on: NCI-H460 lung
NCI-H522 lung = tested on: NCI-H522 lung
OVCAR-5 ovarian = tested on: OVCAR-5 ovarian
SF-295 CNS = tested on: SF-295 CNS
SF-539 CNS = tested on: SF-539 CNS

Row | SMILES | TGI (ACHN renal) | TGI (HOP-62 NSCLC) | TGI (KM12 colon) | TGI (MCF7 breast) | TGI (MDA-MB-231 breast) | TGI (NCI-H460 lung) | TGI (NCI-H522 lung) | TGI (OVCAR-5 ovarian) | TGI (SF-295 CNS) | TGI (SF-539 CNS) | GI50 (ACHN renal) | GI50 (HOP-62 NSCLC) | GI50 (KM12 colon) | GI50 (MCF7 breast) | GI50 (MDA-MB-231 breast) | GI50 (NCI-H460 lung) | GI50 (NCI-H522 lung) | GI50 (OVCAR-5 ovarian) | GI50 (SF-295 CNS) | GI50 (SF-539 CNS)
1 | CCOC(=O)C1CCC/C1=N\N=C(N)N (stereo not given) (tested in a mixture with another compound) | > 100 µM | > 100 µM | > 100 µM | > 100 µM | > 100 µM | > 100 µM | > 100 µM | > 100 µM | > 100 µM | > 100 µM |  |  |  |  |  |  |  |  |  | 
2 | CC(=O)OCC(=O)[C@@]1(O)[C@H](C)C[C@H]2[C@@H]3C=C(C)C4=Cc5c(cnn5-c5ccc(F)cc5)C[C@]4(C)[C@H]3[C@@H](O)C[C@@]21C | 9.97 µM | 3.07 µM | 2.94 µM | 6.24 µM | 6.43 µM | 3.16 µM | 3.82 µM | 4.57 µM | 5.13 µM | 2.35 µM | 2.5 µM | 1.28 µM | 1.44 µM | 1.89 µM | 2.56 µM | 1.47 µM | 1.84 µM | 1.41 µM | 0.982 µM | 0.473 µM
3 | C#Cc1cccc(NC(=O)Nc2ccc(NC(=O)CCl)cc2)c1 | 26 µM | > 82.5 µM | 63.8 µM | > 82.5 µM | 34 µM | > 82.5 µM | 29.3 µM | 28.2 µM | > 82.5 µM | 25 µM | 14 µM | 19 µM | 18.9 µM | 27.8 µM | 14.8 µM | 22 µM | 12.2 µM | 14.3 µM | > 82.5 µM | 13.3 µM
4 | O=C1N=C2c3c(sc4c3CCCC4)N=CN2C1N=Nc1ccc(Cl)cc1 (stereo not given) | > 100 µM | > 100 µM | 44 µM | 66.4 µM | > 100 µM | 79.8 µM | > 100 µM | > 100 µM | 86.2 µM | 46.8 µM | 32.3 µM | 41.1 µM | 13.6 µM | 20 µM | 20.1 µM | 27.8 µM | 26.6 µM | 22.6 µM | 25.4 µM | 15.9 µM
5 | C[C@]12CC[C@H]3[C@@H](CCC4=CC(=O)CC[C@@H]43)[C@@H]1CC[C@@H]2OC1(O)C(=O)c2ccccc2C1=O | 79.4 µM | > 100 µM | > 100 µM | > 100 µM | > 100 µM | > 100 µM | 35.9 µM | > 100 µM | > 100 µM | > 100 µM |  |  |  |  |  |  |  |  |  | 
6 | CC(C)(C)Cn1c(N)nc2ccc(-c3[nH]c(C(C)(C)C)nc3-c3ccc(F)cc3)nc21 | 16.7 µM | 29 µM | 23.9 µM | 25.5 µM | 29.5 µM | 26.5 µM | 23.8 µM | 29.3 µM | 22 µM | 28.5 µM | 1.04 µM | 14.2 µM | 10.3 µM | 10.6 µM | 12.3 µM | 7.46 µM | 8.5 µM | 13.7 µM | 7.82 µM | 13.3 µM
7 | CC1(C)CCSC(/C=C/c2ccccc2)=N1 | 38.8 µM | 32.8 µM | 26.1 µM | 27.6 µM | 30.6 µM | 24.6 µM | 39.8 µM | 36.4 µM | 40.7 µM | 43.5 µM |  |  |  |  |  |  |  |  |  | 
8 | COc1cc(N2CCC(N(C)C)CC2)ccc1Nc1ncc(Cl)c(Nc2ccccc2P(C)(C)=O)n1 | > 9.65 µM | 4.72 µM and > 10 µM | > 30 µM | 21.6 µM and > 10 µM | 7.37 µM and > 5.39 µM | 12.9 µM and > 3.67 µM | 6.08 µM and 3.32 µM | 8.97 µM and > 10 µM | 15.8 µM and > 5.44 µM | 2.97 µM and 2.49 µM | 0.972 µM | 0.384 µM and 0.232 µM |  | 0.202 µM and 0.0522 µM | 1.22 µM and 0.333 µM | 1.92 µM and 0.385 µM | 0.483 µM and 0.115 µM | 0.351 µM and 0.198 µM | 1.81 µM and 0.409 µM | 1.15 µM and 0.511 µM
9 | CCCCCC(=O)N1c2ccccc2NC2=C(C(=O)CC(c3ccc(OC)c(OC)c3)C2)C1c1ccc(C(F)(F)F)cc1 (stereo not given) | > 100 µM | > 100 µM | > 100 µM | > 100 µM | > 100 µM | > 100 µM | > 100 µM | > 100 µM | > 100 µM | > 100 µM | > 100 µM | > 100 µM | > 100 µM | 24.3 µM | 20.4 µM | > 100 µM | 70.8 µM | > 100 µM | > 100 µM | > 100 µM
10 | Cc1ccc(NC(=O)c2ccnc(C(F)(F)F)c2)cc1-c1cc(OCCO)nc(N2CCOCC2)c1 | 80.1 µM | 34.5 µM | 22.1 µM | 17.8 µM | 17.5 µM | 13.5 µM | 17.2 µM | 28.3 µM | 17.6 µM | 11.8 µM | 2.99 µM | 1.28 µM | 2.28 µM | 2.28 µM | 0.688 µM | 2.81 µM | 1.55 µM | 1.09 µM | 3.57 µM | 2.55 µM
11 | CCCCCCC(C)CC(CCCCCC)NCCOC(=O)c1ccc([N+](=O)[O-])cc1 (stereo not given) | 30.5 µM and 28.1 µM | 33.7 µM and 30.7 µM | 27.9 µM and 23.7 µM | 28.3 µM and 21 µM | 23.5 µM and 20.9 µM | 29.4 µM and 18.4 µM | 28.4 µM and 26.2 µM | > 100 µM and 50 µM | 25.3 µM and 31.3 µM | 30.1 µM and 27 µM |  |  |  |  |  | 13.7 µM and 5.28 µM |  |  |  | 
12 | COC(=O)C1=CN(CC2=CC(=O)C(C)=CC2=O)C=C(C(=O)OC)C1c1cccc(OC)c1OC | 22.2 µM | > 48.1 µM | 57.2 µM | 55.2 µM | 28.9 µM | > 70.7 µM | 45.2 µM | 36.3 µM | > 41.8 µM | 56.2 µM | 6.69 µM | 15.8 µM | 18 µM | 18.6 µM | 11.8 µM | 19.7 µM | 17 µM | 18.7 µM | 6.88 µM | 17.1 µM
13 | O=C(O)CC(Cc1ccc2c(c1)OCO2)C(=O)O (stereo not given) | > 100 µM | > 100 µM | > 100 µM | > 100 µM | > 100 µM | > 100 µM | > 100 µM | > 100 µM | > 100 µM | > 100 µM |  |  |  |  |  |  |  |  |  | 
14 | N#C/C(=C\c1cn(-c2ccccc2)c2ccccc12)C(=O)O | > 100 µM | > 100 µM | > 100 µM | > 100 µM | > 100 µM | > 100 µM | 88.8 µM | > 100 µM | > 100 µM | > 100 µM | 44 µM | 39.2 µM | 30.1 µM | 27.4 µM | 44.2 µM | 30 µM | 29 µM | 95.5 µM | 28.1 µM | 39.2 µM
15 | COc1ncnc2c(NC3OC(CO)C(O)C3O)ncnc12 (stereo not given) | > 53.7 µM | 18 µM | > 65.1 µM | 0.443 µM | 1.54 µM | > 83.5 µM | > 100 µM | > 35.6 µM | 22.6 µM | 1.33 µM |  |  |  |  |  |  |  |  |  | 
16 | O=C(Oc1ccccc1)c1cc(O)c(O)c(O)c1 | > 100 µM | 70.3 µM | > 100 µM | > 100 µM | > 100 µM | > 100 µM | 42.5 µM | > 100 µM | 83.7 µM | 36.3 µM | 9.72 µM | 5.13 µM | 11.5 µM | 24.7 µM | 26.2 µM | 4.54 µM | 4.1 µM | 25.2 µM | 17.9 µM | 5.65 µM
17 | Cn1c2ccccc2c2c(=O)n(CCCC(=O)NCC(=O)OC(=NC3CCCCC3)NC3CCCCC3)c3c(-c4ccccc4)nnn3c21 | > 100 µM | 36.6 µM | > 100 µM | > 100 µM | 37.7 µM | > 100 µM | 80.4 µM | 32.5 µM | > 100 µM | 58.1 µM | 26.3 µM | 15.3 µM | 31.3 µM | 3.62 µM | 12.4 µM | 32 µM | 15.9 µM | 15.3 µM | > 100 µM | 19.9 µM
18 | COc1cc2c(cc1OCCCCCOc1cc(-c3ccc(F)cc3)nc(C)n1)N=C[C@@H]1CCCN1C2=O | > 68.6 µM | > 79.4 µM | > 73.6 µM | > 48.8 µM | > 65.5 µM | > 58.5 µM | > 42.3 µM | > 100 µM | > 76.1 µM | > 100 µM | > 37.6 µM | > 50.2 µM | > 48.3 µM | > 23.6 µM | > 39.5 µM | > 36 µM | > 20.5 µM | > 100 µM | > 50.9 µM | > 100 µM
19 | Cc1c(C(=O)/C=C/c2ccc(O)cc2)nnn1-c1ccnc2c(C(F)(F)F)cccc12 | > 100 µM | > 100 µM | > 100 µM | > 100 µM | > 100 µM | > 100 µM | > 100 µM | > 100 µM | > 100 µM | > 100 µM | 31.5 µM | 67.7 µM | 8.92 µM | 23.5 µM | 21.7 µM | 15 µM | 6.2 µM | > 100 µM | 25.8 µM | 72.5 µM
20 | COc1ccc2c(c1)[nH]c(=O)c1c3cccnc3cn21 | 13 µM | 37 µM | 17.5 µM | 14.1 µM | 25.4 µM | 2.06 µM | 0.0682 µM | > 100 µM | 5.9 µM | 2.39 µM | 0.082 µM | 0.0666 µM | 0.0377 µM | 0.0965 µM | 0.299 µM | 0.0363 µM | 0.0222 µM | 0.205 µM | 0.0339 µM | 0.033 µM
